Consider ten compounds from patent US7763636B2, “N-(arylalkyl)-1H-pyrrolopyridine-2-carboxamide derivatives, preparation and therapeutic use thereof” (Sanofi-Aventis, priority 2005, dated 2010).

Each structure is given as a SMILES string.

Usually melting point stands for the temperature of the solid-liquid transition.

Series [1] has as its target T1, TRPV1 receptors (Mus musculus, UniProt Q704Y3).
T1 construct: from tissue; host or cells: cornea of the living mouse (C fibres)
Description: Test of mouse corneal irritation (capsaicin ocular instillation). It counts as in vivo. The settings on record: 1 mg/kg (po), pretreatment time t = 1 h, n = 10, 2 μl of 160 μM capsaicin in the eye, rubbing counted for 2 min. The protocol: Test of Mouse Corneal Irritation
The irritant nature of capsaicin is readily assessed on the cornea since this organ is one of the organs most densely innervated with C fibres. In this context, from preliminary experiments, the application of a very small amount of capsaicin (2 μl at a concentration of 160 μM) to the surface of the cornea of an animal leads to a certain number of stereotypical behavioral traits associated with irritation, which are easy to record. Among these, the following are noted: blinking of the eye, rubbing of the instilled eye with the ipsilateral front paw, rubbing of the face with both front paws, scratching of the ipsilateral face with the hind paw. […] Its aspect is moreover also normal. […]
In practice, the test product is administered orally and, with a delay (pretreatment time: t) that depends on the pharmacokinetic data, the animal receives an ocular instillation of 2 μl of a 160 μM capsaicin solution prepared as indicated above. During a 2-minute observation following the instillation, the number of times the instilled eye is rubbed with the ipsilateral front paw is recorded.
For a given animal, the percentage of protection is calculated as follows: P=100−((number of scratching actions observed/mean number of scratching actions for the group treated with the solvent)×100) […]

T1 sequence (Q704Y3 whole entry): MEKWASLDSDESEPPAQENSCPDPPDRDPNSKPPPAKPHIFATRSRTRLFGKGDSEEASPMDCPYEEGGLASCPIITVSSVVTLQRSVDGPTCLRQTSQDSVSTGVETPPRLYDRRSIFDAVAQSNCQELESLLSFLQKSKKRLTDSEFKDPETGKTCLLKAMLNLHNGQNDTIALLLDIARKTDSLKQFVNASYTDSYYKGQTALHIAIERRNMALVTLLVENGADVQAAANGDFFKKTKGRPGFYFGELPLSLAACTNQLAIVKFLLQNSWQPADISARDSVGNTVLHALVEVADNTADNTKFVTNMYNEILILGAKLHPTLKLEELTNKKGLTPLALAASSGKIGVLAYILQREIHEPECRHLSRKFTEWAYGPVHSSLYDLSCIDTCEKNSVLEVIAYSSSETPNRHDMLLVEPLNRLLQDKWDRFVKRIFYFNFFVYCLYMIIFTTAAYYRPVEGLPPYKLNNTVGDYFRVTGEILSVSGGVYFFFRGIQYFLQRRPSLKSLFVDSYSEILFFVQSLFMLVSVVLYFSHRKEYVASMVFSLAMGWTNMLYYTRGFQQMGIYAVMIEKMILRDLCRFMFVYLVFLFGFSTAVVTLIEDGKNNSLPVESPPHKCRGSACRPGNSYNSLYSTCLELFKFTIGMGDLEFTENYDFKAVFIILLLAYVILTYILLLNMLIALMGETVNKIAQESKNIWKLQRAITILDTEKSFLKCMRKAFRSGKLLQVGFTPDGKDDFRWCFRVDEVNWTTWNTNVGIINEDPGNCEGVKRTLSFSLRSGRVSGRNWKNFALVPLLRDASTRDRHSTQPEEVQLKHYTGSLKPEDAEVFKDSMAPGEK

`Cn1ccc2cc(NC(=O)c3cc4ccncc4n3Cc3cccc(F)c3)ccc21` came in with a melting point of 213 to 214.5 °C.

`Cn1ccc2cc(NC(=O)c3cc4cc(C(F)(F)F)cnc4n3Cc3cccc(F)c3)ccc21` displayed a melting point of 229 to 231 °C.

In the case of `Cc1nc2cc(NC(=O)c3cc4cc(F)cnc4n3Cc3cccc(F)c3)ccc2n1C`, the melting point lay in the range of 226 to 228 °C.

`Cc1nc2cc(NC(=O)c3cc4cccnc4n3-c3ccccc3)ccc2n1C` registered a melting point of 286 to 288 °C.

Take `Cc1nc2cc(NC(=O)c3cc4cnccc4n3Cc3cccc(F)c3)ccc2n1C`: the melting point was 263 to 264 °C.

Compound `Cn1cnc2cc(NC(=O)c3cc4ncccc4n3Cc3cccc(F)c3)ccc21` registered a melting point of 277 to 281 °C.

`Cc1nc2cc(NC(=O)c3cc4ncccc4n3Cc3cccc(F)c3)ccc2s1`: the melting point is 263 to 265 °C.

In the case of `Cc1nc2cc(NC(=O)c3cc4ncccc4n3Cc3cccc(F)c3)ccc2n1C`, the melting point was in the range of 245 to 247 °C.

Turning to `Cc1nc2cc(NC(=O)c3cc4cc(Cl)ncc4n3Cc3cccc(F)c3)ccc2n1C`, the melting point is 240 to 242 °C.

Take `Cn1cnc2cc(NC(=O)c3cc4cc(F)cnc4n3Cc3cccc(F)c3)ccc21` [Compound 15, N-(1-methyl-1H-benzimidazol-5-yl)-5-fluoro-1-[(3-fluorophenyl)methyl]-1H-pyrrolo[2,3-b]pyridine-2-carboxamide]: the “% P (percentage of protection)” value in series [1] is on record as 50% - (1 h).
